Here are results for eleven compounds from US20240239790A1, “7-Morpholino-1,6-Naphthyridin-5-yl Derivatives and Pharmaceutical Compositions Thereof Useful as DNA-PK Inhibitor” (adMare Therapeutics Society, priority 2021, published 2024).

One data set has as its target T1, DNA-PK (Homo sapiens, UniProt P78527).
T1 construct: purchased Invitrogen PR9107A
The experiment in a line: DNA-PK Assay for Biochemical Enzymatic Inhibition (ADP Glo Kinase assay). Particulars: DNA-PK enzyme. Put shortly: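 Human DNA-PK (25 ng) preincubated 15 min with compounds (ten three-fold dilutions) in HEPES pH 7.5, MgCl2, KCl, calf thymus DNA buffer, then substrate 434.4 μM and ATP 64.4 μM (final) for 60 min at room temperature. ADP-Glo luminescence; percent inhibition fitted by four-parameter regression for IC50.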
(In general: In ADP-Glo the light output rises with the ADP produced.)

The target of data set [1] is T2, DNA-PK phosphorylation at Serine 2056 (Homo sapiens, UniProt P78527).
T2 construct: FaDu cells were purchased from ATCC; host or cells: FaDu
In words: Cellular Assay for Inhibition of DNA-PK Phosphorylation at Serine 2056 in FaDu cells (sandwich ELISA, neocarzinostatin). Particulars: pSer2056 DNA-PK. Type of data set: cell-based. Put shortly: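 FaDu cells pre-treated with compound (0.3% DMSO) for 1 h, then neocarzinostatin 1 μg/mL final added for 2 h to induce DSBs. Protein-normalised lysates read by sandwich ELISA for total and pSer2056 DNA-PK; % inhibition normalised between DMSO and NCS controls, IC50 from variable-slope log(inhibitor) fit.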
On the technique in general: ELISA stands for enzyme-linked immunosorbent assay.

Data set [2] relates to pDNA-PK induction in HCT116 tumour spheroids. In words: Multicellular tumour spheroid + radiation, pDNA-PK (ser2056) inhibition, immunohistochemical endpoint, HCT116. The class given is cell-based. Particulars: Homo sapiens, 20 Gy, 20% O2. The protocol: Multicellular tumour spheroids determination of compound inhibition of pDNA-PK induction following radiation. Tumour spheroids were grown to approximately 0.5 mm in diameter and irradiated with 20 Gy in combination with inhibitor test compounds to determine their potency. Inhibitor concentration for 50% reduction in pDNA-PK induction (IC50) was determined via immunohistochemical staining in spheroid cryosections taken 2 hours following radiation.
Spheroid+radiation pDNA-PK. Radiation: 20 Gy. Drug: serial dilution 5 or 10 μM down to 3.5 nM (11 wells). Spheroids: 3-6 spheroids per well (300-500 μm diameter). 20% 02 and 5% CO2. 96 well plate format.
Protocol: pre-incubate 1 hours with drug, irradiate with 20 Gy, post-incubate 2 hours with drug, freeze and cryosection ×3 replicates.
Endpoint: fluorescent immunostin pDNA-PK ser2056 and image on microscope.
Analysis: determine EC50 concentration that decreases pDNA-PK induction by 50% after radiation.
Multicellular tumour spheroids determination of compound inhibition of pDNA-PK induction following radiation. Tumour spheroids were grown to approximately 0.5 mm in diameter and irradiated with 20 Gy in combination with inhibitor test compounds to determine their potency. Inhibitor concentration for 50% reduction in pDNA-PK induction (IC50) was determined via immunohistochemical staining in spheroid cryosections taken 2 hours following radiation. For cell survival endpoint 8 Gy radiation was used and 3 hours following radiation spheroids were dissociated, counted and plated for colony forming endpoint.
Spheroid+radiation pDNA-PK. Radiation: 20 Gy. Drug: serial dilution 5 or 10 μM down to 3.5 nM (11 wells). Spheroids: 3-6 spheroids per well (300-500 μm diameter). 20% 02 and 5% CO2. 96 well plate format. Endpoint: fluorescent immunostain pDNA-PK ser2056 and image on microscope. Analysis: determine EC50 concentrations that decreases pDNA-PK induction by 50% after irradiation.
Multicellular tumour spheroids were used to determine potency of test compounds in a 3D tissue environment using inhibition of pDNA-PK induction following radiation or cell survival as the endpoint. For the pDNA-PK endpoint HCT116 or FaDU tumour spheroids were grown to approximately 0.5 mm in diameter and irradiated with 20 Gy in combination with inhibitor test compounds to determine their potency. Experiments were carried out in 96 well plates containing 0.7 mls of MEM media containing 10% FBS and 10 mM glucose under 20% O2 & 5% CO2 at 37° C. Following dilution of compounds 1:1000 from DMSO stocks, compounds were serially diluted from 10 μM down to 3.5 nM and 5-10 spheroids added. 96 well plates were constantly stirred to avoid spheroids settling during the course of the experiment. The inhibitor concentration for 50% reduction in pDNA-PK induction (EC50) was determined via immunohistochemical staining in spheroid cryosections taken 2 hours following radiation using anti-pDNA-PK (ser 2056) and fixed immediately in formalin following sectioning. For cell survival endpoint 8 Gy radiation was used and, 3 hours following radiation, spheroids were dissociated, counted and plated for colony forming endpoint. Data presented in the table compound potency as EC50 [μM].

Data set [3] can be described thus: Microsomal Stability Assay, mouse liver microsomes. Type of data set: in vitro ADME. Particulars: for microsomal CLint at 0.1 uM: male, CD-1, pH 7.4, mouse liver microsomes 0.1 mg/mL, 0.1 uM compound; for Microsomal Stability Mouse % rem. 60 min: mouse liver microsomes. The protocol: Samples were then mixed and centrifuged. Supernatants were used for HPLC-MS/MS analysis. […] Peak areas corresponding to the test compound were recorded.
For orientation: Microsomes from liver hold many membrane-bound enzymes, among them those of drug oxidation.

In data set [4] the test system is pH2AX induction in HCT116 ATM-/- multicellular tumour spheroids. The experiment in a line: Prodrug Radiation Sensitization in Multicellular Tumour Spheroids, inhibition of pH2AX induction following radiation. The class given is cell-based. Particulars: Homo sapiens, HCT-116, 20 Gy. In outline:
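HCT116 and FaDu spheroids (~0.5 mm diameter), ATM-deficient lines included, in MEM/10% FBS/10 mM glucose at 37 °C under 20% vs 5% oxygen with stirring. Prodrugs 10 μM down to 3.5 nM, 20 Gy irradiation. pDNA-PK (ser 2056) or pH2AX (ser 139) scored in formalin-fixed cryosections 1 or 2 h post-radiation.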

The next data set concerns FaDu cell line. The experiment in a line: Prodrug Activation in Hypoxic Stirred Tumour Cell Suspensions. Particulars: 10 μM, 4 hours.
Setting [5] is: neocarzinostatin 1 μg/mL, Table 1.
Setting [6] is: HCT-116, 2 h, spheroids, Example 8, read-out: Cell line: HCT116 Immunohistochemical endpoint pDNA-PK inhibition EC50.
Where [7] appears, read: HCT-116, 2 hours following radiation, Example 9 Study 2, read-out: Spheroid Cell line: HCT116 Immunohistochemical endpoint pDNA-PK inhibition EC50.
[8] abbreviates: HCT-116, Spheroid, Cell Line: HCT115 (so in the source), 2 hours following radiation, Example 7, read-out: EC50, Immunohistochemical endpoint, pDNA-PK inhibition.
Setting [9] is: 5% O2, inner layers, read-out: Prodrug 5% O2 Inner layers EC50.
The mark [10] stands for this setting: 5% O2, outer layers, read-out: Prodrug 5% O2 Outer layers EC50.
Where [11] appears, read: 20% O2, outer layers, read-out: Prodrug 20% O2 Outer layers EC50.

Read-outs that look alike come from different tables or passages of the source.

Protocol for FaDu cell line: Prodrug compounds were assayed to determine their stability and rate of activation in stirred cell suspensions under 0.2 vs 5% oxygen. Compounds were diluted 1:1000 from DMSO stocks to 10 μM final concentration in tumour cell suspensions (1% by cell volume) in MEM media containing 10% FBS, 10 mM glucose & 3.7 g/L sodium bicarbonate. Cell lines assayed included A253, A549, Detroit562, FaDu, HCT116, HEP G2, HT29, SCC25, SCC9, SiHa & TC32. Compounds and cells were then incubated for 4 hours under constant mixing at 37° C. under 5% CO2 and either 0.2 or 5% O2. Following the incubation period cellular activation of the compounds was assayed via MeOH extraction and HPLC quantification.

For orientation: IC50 means the midpoint of a concentration-inhibition curve. As usually defined, the EC50 is the concentration that produces a half-maximal response. Broadly, the microsomal CLint is a measure of how fast metabolising enzymes remove a compound, apart from limits set by blood flow. For the compound `Cn1cc([C@H]2CC[C@@H](Oc3nc(N4CCOCC4)cc4ncc(OCCO)cc34)CC2)cn1` [Compound 5, 2-((5-(((1s,4s)-4-(1-methyl-1H-pyrazol-4-yl)cyclohexyl)oxy)-7-morpholino-1,6-naphthyridin-3-yl)oxy)ethan-1-ol], the IC50 lay in the range of 1 to 10 nM on DNA-PK (Table 1) and 10000 to 30000 nM in data set [1] (setting [5]). In addition, the EC50 in data set [2] (setting [6]), in data set [2] (setting [7]) and in data set [2] (setting [8]) was 1000 to 10000 nM each time. In addition, in data set [3], the microsomal CLint at 0.1 uM is greater than 116 µL/min/mg. In addition, the “Microsomal Stability Mouse % rem. 60 min” value in data set [3] is on record as “E (% remaining = 0-25%)”.
Turning to `CC1(C)CN(c2cc3ncccc3c(O[C@H]3CC[C@@H](n4ccnc4)CC3)n2)CC(C)(C)O1` [Compound 12, 4-(5-(((1s,4s)-4-(1H-imidazol-1-yl)cyclohexyl)oxy)-1,6-naphthyridin-7-yl)-2,2,6,6-tetramethylmorpholine], at DNA-PK (Table 1), the 50% inhibitory concentration (IC50) was in the range of 10 to 150 nM. Besides, in data set [3], the microsomal CLint at 0.1 uM is greater than 116 µL/min/mg and the “Microsomal Stability Mouse % rem. 60 min” value is “E (% remaining = 0-25%)”.
For the compound `NC(=O)N[C@H]1CC[C@@H](Oc2nc(N3CCOCC3)cc3ncccc23)CC1` [Compound 15, 1-((1s,4s)-4-((7-morpholino-1,6-naphthyridin-5-yl)oxy)cyclohexyl)urea], the IC50 at DNA-PK (Table 1) is 1 to 10 nM; in data set [1] (setting [5]) it was 100 to 1000 nM. For the same compound, the EC50 in data set [2] (setting [6]), in data set [2] (setting [7]) and in data set [2] (setting [8]) was 1000 to 10000 nM each time. Further, the microsomal CLint at 0.1 uM in data set [3] was greater than 116 µL/min/mg. For the same compound, the “Microsomal Stability Mouse % rem. 60 min” value in data set [3] was “E (% remaining = 0-25%)”.
As to `c1ccc(-c2cnc3cc(N4CCOCC4)nc(O[C@H]4CC[C@@H](n5ccnc5)CC4)c3c2)cc1` [Compound 156, 4-(5-(((1s,4s)-4-(1H-imidazol-1-yl)cyclohexyl)oxy)-3-phenyl-1,6-naphthyridin-7-yl)morpholine], at DNA-PK (Table 1), the 50% inhibitory concentration (IC50) was 10 to 150 nM. In addition, in data set [3], the microsomal CLint at 0.1 uM is greater than 116 µL/min/mg and the “Microsomal Stability Mouse % rem. 60 min” value was “E (% remaining = 0-25%)”.
As to `Cc1noc(C)c1-c1cnc2cc(N3CCOCC3)nc(O[C@H]3CC[C@@H](n4ccnc4)CC3)c2c1` [Compound 157, 4-(5-(((1s,4s)-4-(1H-imidazol-1-yl)cyclohexyl)oxy)-3-(3,5-dimethylisoxazol-4-yl)-1,6-naphthyridin-7-yl)morpholine], the IC50 at DNA-PK (Table 1) fell in the range of 1 to 10 nM. The compound also showed a 50% inhibitory concentration (IC50) in data set [1] (setting [5]) of 1000 to 10000 nM. In data set [3], the microsomal CLint at 0.1 uM was greater than 116 µL/min/mg and the “Microsomal Stability Mouse % rem. 60 min” value is reported as “E (% remaining = 0-25%)”.
Turning to `Cn1cc(-c2cnc3cc(N4CCOCC4)nc(O[C@H]4CC[C@@H](n5ccnc5)CC4)c3c2)cn1` [Compound 158, 4-(5-(((1s,4s)-4-(1H-imidazol-1-yl)cyclohexyl)oxy)-3-(1-methyl-1H-pyrazol-4-yl)-1,6-naphthyridin-7-yl)morpholine], the IC50 at DNA-PK (Table 1) was in the range of 10 to 150 nM. Also, the IC50 in data set [1] (setting [5]) lay in the range of 100 to 1000 nM. Besides, in data set [3], the microsomal CLint at 0.1 uM is greater than 116 µL/min/mg and the “Microsomal Stability Mouse % rem. 60 min” value is recorded as “E (% remaining = 0-25%)”.
As for `NC(=O)Nc1cnc2cc(N3CCOCC3)nc(O[C@H]3CC[C@@H](Nc4ncccn4)CC3)c2c1` [Compound 196, 1-(7-morpholino-5-(((1s,4s)-4-(pyrimidin-2-ylamino)cyclohexyl)oxy)-1,6-naphthyridin-3-yl)urea], the IC50 on DNA-PK (Table 1) was 1 to 10 nM; in data set [1] (setting [5]) it was 100 to 1000 nM. In addition, the EC50 in data set [2] (setting [7]) and in data set [2] (setting [8]) was 1000 to 10000 nM throughout.
With `c1ccc(CSc2cnc3cc(N4CCOCC4)nc(O[C@H]4CC[C@@H](Nc5ncccn5)CC4)c3c2)cc1` [Compound 200c, N-((1s,4s)-4-((3-(benzylthio)-7-morpholino-1,6-naphthyridin-5-yl)oxy)cyclohexyl)pyrimidin-2-amine], the IC50 was 10 to 150 nM on DNA-PK (Table 1) and 10000 to 30000 nM in data set [1] (setting [5]). For the same compound, the concentration for a half-maximal effect (EC50) in data set [2] (setting [7]) and in data set [2] (setting [8]) was 10000 to 100000 nM throughout.
With `CSc1cnc2cc(N3CCOCC3)nc(O[C@H]3CC[C@@H](Nc4ncccn4)CC3)c2c1` [Compound 200d, N-((1s,4s)-4-((3-(methylthio)-7-morpholino-1,6-naphthyridin-5-yl)oxy)cyclohexyl)pyrimidin-2-amine], the IC50 on DNA-PK (Table 1) lay within 1 to 10 nM; in data set [1] (setting [5]), 100 to 1000 nM. For the same compound, the EC50 in data set [2] (setting [7]) and in data set [2] (setting [8]) was 1000 to 10000 nM throughout.
`Cn1c(COc2cnc3cc(N4CCOCC4)nc(O[C@H]4CC[C@@H](NC(=O)c5ncccn5)CC4)c3c2)cnc1[N+](=O)[O-]` [LFA116, N-[4-[[3-[(3-Methyl-2-nitro-imidazol-4-yl)methoxy]-7-morpholino-1,6-naphthyridin-5-yl]oxy]cyclohexyl]pyrimidine-2-carboxamide]: the values for the half-inhibitory concentration (IC50) (at DNA-PK (Table 2); in data set [1] (Table 2)) were 10 to 150 nM and 10000 to 30000 nM, respectively. The EC50 in data set [4] (setting [9]) was 10 to 500 nM; in data set [4] (setting [10]) it was 1000 to 10000 nM; in data set [4] (setting [11]), 1000 to 10000 nM. In the data set with FaDu cell line, the “Fraction of prodrug converted to active form, Hypoxic 0.2% O2” value is listed as “A (A is 0.15 to 1)”. The “Fraction of prodrug converted to active form, Oxic 5% O2” value with FaDu cell line is “C (C is 0.02 to 0.05)”.
Regarding `Cn1c(COc2cnc3cc(N4CCOCC4)nc(O[C@H]4CC[C@@H](Nc5ncccn5)CC4)c3c2)cnc1[N+](=O)[O-]` [LFA118, N-[4-[[3-[(3-Methyl-2-nitro-imidazol-4-yl)methoxy]-7-morpholino-1,6-naphthyridin-5-yl]oxy]cyclohexyl]pyrimidin-2-amine], the half-inhibitory concentration (IC50) at DNA-PK (Table 2) lay in the range of 10 to 150 nM; in data set [1] (Table 2), 10000 to 30000 nM. Besides, the EC50 in data set [4] (setting [9]) was 10 to 500 nM; in data set [4] (setting [10]), 500 to 1000 nM; in data set [4] (setting [11]), 1000 to 10000 nM. For the same compound, in the data set on FaDu cell line, the “Fraction of prodrug converted to active form, Hypoxic 0.2% O2” value is listed as “A (A is 0.15 to 1)”. Moreover, the “Fraction of prodrug converted to active form, Oxic 5% O2” value with FaDu cell line is reported as “C (C is 0.02 to 0.05)”.
